Source: ChEMBL document CHEMBL3763140, “Discovery of 5-aryl-1,3-dihydro-2H-imidazo[4,5-b]pyridin-2-ones as positive allosteric modulators of metabotropic glutamate subtype-2 (mGlu2) receptors with efficacy in a preclinical model of psychosis” (Bioorg Med Chem Lett, 2016)
Converted amounts (≈) assume the structure as drawn.

Legend:
[1] = physchem; conditions: buffer, pH 7
[2] = Total clearance in iv dosed Wistar Hannover rat administered as single dose measured up to 24 hrs; format: ADME, organism-based; conditions: in vivo
[3] = Half life in iv dosed Wistar Hannover rat administered as single dose measured up to 24 hrs; format: ADME, organism-based; conditions: in vivo
[4] = tested on: Rattus norvegicus; assay: Intrinsic clearance in iv dosed Wistar Hannover rat administered as single dose measured up to 24 hrs; format: ADME, organism-based; conditions: in vivo
[5] = Oral bioavailability in Wistar Hannover rat at 10 mg/kg administered as single dose measured up to 24 hrs; format: ADME, organism-based; conditions: in vivo
[6] = Total plasma concentration in PCP stimulated Sprague-Dawley rat hyperlocomotion model at 10 mg/kg, po after 2 hrs; format: ADME, organism-based
[7] = Total plasma concentration in PCP stimulated Sprague-Dawley rat hyperlocomotion model at 30 mg/kg, po after 2 hrs; format: ADME, organism-based
[8] = Total plasma concentration in PCP stimulated Sprague-Dawley rat hyperlocomotion model at 100 mg/kg, po after 2 hrs; format: ADME, organism-based
[9] = Total plasma concentration in MK801 stimulated Sprague-Dawley rat hyperlocomotion model at 10 mg/kg, po after 2 hrs; format: ADME, organism-based
[10] = Total plasma concentration in MK801 stimulated Sprague-Dawley rat hyperlocomotion model at 30 mg/kg, po after 2 hrs; format: ADME, organism-based
[11] = Total plasma concentration in MK801 stimulated Sprague-Dawley rat hyperlocomotion model at 100 mg/kg, po after 2 hrs; format: ADME, organism-based
[12] = tested on: Plasma; assay: Unbound plasma concentration in PCP stimulated Sprague-Dawley rat hyperlocomotion model at 10 mg/kg, po after 2 hrs; format: ADME, organism-based; conditions: in vivo
[13] = tested on: Plasma; assay: Unbound plasma concentration in PCP stimulated Sprague-Dawley rat hyperlocomotion model at 30 mg/kg, po after 2 hrs; format: ADME, organism-based; conditions: in vivo
[14] = tested on: Plasma; assay: Unbound plasma concentration in PCP stimulated Sprague-Dawley rat hyperlocomotion model at 100 mg/kg, po after 2 hrs; format: ADME, organism-based; conditions: in vivo
[15] = tested on: Plasma; assay: Unbound plasma concentration in MK801 stimulated Sprague-Dawley rat hyperlocomotion model at 10 mg/kg, po after 2 hrs; format: ADME, organism-based; conditions: in vivo
[16] = tested on: Plasma; assay: Unbound plasma concentration in MK801 stimulated Sprague-Dawley rat hyperlocomotion model at 30 mg/kg, po after 2 hrs; format: ADME, organism-based; conditions: in vivo
[17] = tested on: Plasma; assay: Unbound plasma concentration in MK801 stimulated Sprague-Dawley rat hyperlocomotion model at 100 mg/kg, po after 2 hrs; format: ADME, organism-based; conditions: in vivo
[18] = tested on: Cerebrospinal fluid; assay: Drug uptake in cerebro spinal fluid of PCP stimulated Sprague-Dawley rat hyperlocomotion model at 10 mg/kg, po; format: ADME, organism-based; conditions: in vivo, read-out: Drug uptake
[19] = tested on: Cerebrospinal fluid; assay: Drug uptake in cerebro spinal fluid of PCP stimulated Sprague-Dawley rat hyperlocomotion model at 30 mg/kg, po; format: ADME, organism-based; conditions: in vivo, read-out: Drug uptake
[20] = tested on: Cerebrospinal fluid; assay: Drug uptake in cerebro spinal fluid of PCP stimulated Sprague-Dawley rat hyperlocomotion model at 100 mg/kg, po; format: ADME, organism-based; conditions: in vivo, read-out: Drug uptake
[21] = tested on: Cerebrospinal fluid; assay: Drug uptake in cerebro spinal fluid of MK801 stimulated Sprague-Dawley rat hyperlocomotion model at 10 mg/kg, po; format: ADME, organism-based; conditions: in vivo, read-out: Drug uptake
[22] = tested on: Cerebrospinal fluid; assay: Drug uptake in cerebro spinal fluid of MK801 stimulated Sprague-Dawley rat hyperlocomotion model at 30 mg/kg, po; format: ADME, organism-based; conditions: in vivo, read-out: Drug uptake
[23] = tested on: Cerebrospinal fluid; assay: Drug uptake in cerebro spinal fluid of MK801 stimulated Sprague-Dawley rat hyperlocomotion model at 100 mg/kg, po; format: ADME, organism-based; conditions: in vivo, read-out: Drug uptake
[24] = tested on: MDR1a (P-glycoprotein); assay: Apparent permeability across pig LLC-PK cells expressing human/rat MDR1a; format: ADME, cell-based, Sus scrofa; conditions: LLC-PK1
[25] = in vivo; conditions: Wistar Hannover, rat, 10 mg/kg

Q: For `Cn1c(=O)n(CC(C)(C)C)c2ccc(-c3ccc(S(C)(=O)=O)cc3)nc21`, which solubility [1] is on record?
A: Its solubility is 7 µM (≈ 2.61 µg/mL).

Q: Which results are given for `Cc1ccc(C(C)(C)O)cc1-c1ccc2c(n1)n(C)c(=O)n2CC(C)(C)C`?
A: clearance [2]: 42 mL/min/kg; half-life [3]: 58.8 min; CL [4]: 2800 mL/min/kg; bioavailability [5]: 47%; concentration at 2 h [6]: 1800 nM; concentration at 2 h [7]: 8.5 µM; concentration at 2 h [8]: 25 µM; concentration at 2 h [9]: 1400 nM; concentration at 2 h [10]: 6.7 µM; concentration at 2 h [11]: 22 µM; Cp(f) [12]: 54 µM; Cp(f) [13]: 255 µM; Cp(f) [14]: 750 µM; Cp(f) [15]: 42 µM; Cp(f) [16]: 201 µM; Cp(f) [17]: 660 µM; concentration [18]: 26 nM; concentration [19]: 399 nM; concentration [20]: 906 nM; concentration [21]: 21 nM; concentration [22]: 211 nM; concentration [23]: 711 nM; Papp [24]: 31 ×10⁻⁶ cm/s; Cmax at 24 h [25]: 1500 nM; solubility [1]: 147 µM (≈ 54 µg/mL)
